EC50 data for 14 compounds are collected here from patent US9067898B1, “Isothiazole derivatives as GPR120 agonists for the treatment of type II diabetes” (Janssen Pharmaceutica NV, priority 2014, dated 2015).

In test [1] the target is T1, long form of human GPR120 (Homo sapiens, UniProt Q5NUL3).
T1 construct: host or cells: PathHunter CHO-K1 GPR120 β-Arrestin Cell Line
In words: Human GPR120 DiscoveRx PathHunter Beta-Arrestin assay, Procedure β-arrestin A. The test is classed as cell-based. Conditions: PathHunter CHO-K1 GPR120 β-Arrestin cell line, 3000 cells per well, read-out: hGPR120 β-arrestin A EC50. From the text: The binding of an agonist (medium/long chain fatty acids or small molecule agonists) to the G-protein-coupled receptor GPR120 activates phospholipase C, leading to release of intracellular Ca^+2 through the generation of inositol 1,4,5-trisphosphate (InsP3 or IP3). GPR120 activation can also trigger intracellular signaling via recruitment of Beta-Arrestin. In the present method, agonist-induced activation of the human GPR120 receptor is monitored through the use of PathHunter CHO-K1 GPR120 Beta-Arrestin Cell Line engineered by DiscoveRx, as detailed below. The cell lines are designed to co-express both the ProLink/Enzyme Donor (PK)-tagged GPCR and the Enzyme […] (EA)-tagged Beta-Arrestin fusion proteins. Upon GPR120 receptor stimulation/activation, the EA-tagged Beta-Arrestin portion is translocated to the tagged receptor, where the two enzyme fragments are brought within close proximity. Under these conditions, these fragments can interact and form an active Beta-gal enzyme complex through Enzyme Fragment Complementation (EFC). This active Beta-gal complex can enzymatically hydrolyse the substrate to produce a detectable light signal; therefore, activation as a function of agonist concentration can be expressed as an EC50 value to determine relative compound activities. This in vitro assay therefore serves to assess compound agonist activity of the GPR120. Procedure β-Arrestin A: In Procedure β-arrestin A, the cell used were PathHunter CHO-K1 GPR120 β-Arrestin Cell Line, expressing the long form of human GPR120 (Genbank accession number NM 181745), with 3000 cells per well. Procedure β-Arrestin B: In Procedure 3-arrestin B the cells used were PathHunter CHO-K1 GPR120S β-Arrestin Cell Line, expressing the short form of the GPR120 receptor (Accession #NM_181745), with 5000 cells/well. Assay Procedure:
The selected CHO-K1 GPR120 β-Arrestin cells were cultured in Ham's F12 media supplemented with 10% fetal bovine serum (FBS), 1% Glutamine, lx p/s, 800 μg/mL G418 and 300 μg/mL Hygromycin B (for selection). Cell stocks were maintained and grown in a sub-confluent state using standard cell culture procedures. The day before the experiment, the cells were harvested with non-enzymatic cell dissociation buffer and re-suspended in complete growth media at the desired concentration. A Corning 384-plate was then seeded with the proper number of cells in a volume of 25 μL, per well. The seeded plates were incubated overnight at 37° C.
On the day of the experiment, the Assay Buffer containing (a) HBSS with Ca^++ and Mg^++, (b) 20 mM HEPES, and (c) 0.1% BSA stabilizer (pH 7.4) was prepared. The growth medium was gently removed from the cell plates and 20 μL of Assay Buffer added to each well. The plate was then incubated at 37° C. for 60 min. Test compounds were serially diluted in Assay Buffer to desired concentrations (more particularly to one or more of the following μM concentrations: 25, 12.5, 6.25, 3.125, 1.5625, 0.78125, 0.390625, 0.1953125, 0.09765625, 0.048828125, 0.024414063, 0.012207031). Five μL of compound dilution was then added to each well and the plate incubated at 37° C. for 90 min. The detection reagents were prepared according to the manufacture's instruction. Twelve μL of the detection reagents were added to each well and the plate incubated at room temperature for 60 min.
The plates were read on an EnVision instrument, using Protocol name: Luminescence, Plate type: 384 Costar, Measurement height: 3 mm, Measurement time: 1 s, Aperture: 384 Plate aperture. The % activity relative to the positive control was calculated using the following equation:
The % Activity values were plotted versus the concentration of test compound and fitted to a sigmoidal dose-response curve with a Hill slope=1 (fixed value) using nonlinear regression with GraphPad Prism 5.0 to calculate the EC50 values. […]

The target in test [2] is T2, Human GPR120 short form (Homo sapiens, UniProt Q5NUL3).
T2 construct: expressed in transfected cells
T2 sequence (Q5NUL3 1-361): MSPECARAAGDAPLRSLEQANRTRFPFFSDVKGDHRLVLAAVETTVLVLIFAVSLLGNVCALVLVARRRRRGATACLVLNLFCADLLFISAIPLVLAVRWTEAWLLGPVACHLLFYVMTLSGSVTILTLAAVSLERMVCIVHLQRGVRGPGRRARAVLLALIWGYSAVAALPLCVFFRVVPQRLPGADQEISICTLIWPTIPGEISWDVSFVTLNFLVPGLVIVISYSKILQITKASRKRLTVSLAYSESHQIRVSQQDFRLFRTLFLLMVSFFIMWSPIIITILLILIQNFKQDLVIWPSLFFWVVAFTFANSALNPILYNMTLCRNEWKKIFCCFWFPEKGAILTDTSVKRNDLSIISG
In words: Human GPR120 calcium flux assay (FLIPR), Procedure Calcium A. In kind it is cell-based. Conditions: HEK-293 cells expressing human GPR120 short form, 2500 cells/well; read-out: GPR120 Ca2+ Assay A EC50. The text has this: This in vitro assay serves to assess test compound agonist activity against the short splice variant (SVS with Accession number NM_001195755.1 confirmed by sequencing data) of the GPR120 receptor. The Human Short splice variant #2 (NM_001195755.1) is missing an in-frame coding exon compared to variant 1 (the Human Long splice variant NM_181745.3), resulting in a shorter isoform (GPR120-S) lacking a 16 aa protein segment compared to isoform GPR120-L. The assay platform utilizes HEK-293 cells stably transfected to express the Human GPR120 short form. These cells are first loaded with the Ca^+2 sensitive dye, Fluo-4 NW. Upon stimulation, intracellular released Ca^+2 can bind to the dye and alter its fluorescence intensity. This increase in fluorescence signal, and thus the flux in intracellular [Ca^2+], is detected and quantitated by fluorescence imaging using a FLIPR reader. The effect of the agonist is measured as a function of concentration and used to calculate an EC50 based upon a response curve.
In this procedure 2500 cells/well were employed.
A Human GPR120 clone (Genbank accession number NM_001195755.1) was placed into the pcDNA3.1 mammalian expression vector carrying the neomycin resistance gene. A stable mammalian cell was generated by placing the above clone into a HEK293 background. Clonal cells responding to long chain fatty acids had expression levels of GPR120 confirmed by RT-qPCR. Human HEK-GPR120 cells were cultured in Dulbecco's Modified Eagle's Medium (DMEM)/F12 medium supplemented with 10% fetal bovine serum (FBS), 1% L-Glutamine and 1% penicillin/streptomycin and 0.5 mg/ml G-418. Cells were split 2 times a week to keep the cells in the log-phase growth.
In preparation for the assay, HEK cells stably transfected with Human GPR120 (2.5K cells per well in 25 uL growth medium) were seeded into 384-well plates and then incubated overnight (37° C., 5% CO2). The next day, the media was changed to 20 μL assay buffer and the cell starved for 1 h at 37° C. The dye loading solution (2× dye) was prepared using 10 mL assay buffer, 100 μL of 250 mM probenecid, 1 bottle of Component A, and 20 μl of dye in DMSO. Twenty μL of the 2× dye loading buffer was then added to each well. The plates were incubated at 37° C. for 30 min, then at room temperature for an additional 15 minutes, before performing the assay on FLIPR. Test compounds were prepared in assay buffer (2 uL of cpd+198 uL assay buffer, final DMSO in assay plate is 0.2%) at the desired concentration, more particularly at 100, 50, 25, 12.5, 6.25, 3.125, 1.562, 0.781, 0.391, 0.195, 0.098, 0.049, 0.024 and 0.012 μM.
The assay was performed on a FLIPR plate reader using the following parameters. Baseline was read for 10 seconds at 1 sec intervals. The program was set to transfer 10 μL of ligand from compound plate to cell plate after baseline reading. Aspiration was executed at: 10 μL/sec speed, 4.6 μL height; Dispensing was executed at: 30 μL/sec speed, 45 μL height. After compound addition, each well was read for 300 sec, with measurements collected at 1 sec intervals.
The kinetic data from the FLIPR was based upon a 5 minute window for data collection. The fluorescence of each sample well was used for individual calculations of a normalized RFU value, which was defined as maximum response minus the minimum response. The normalized fluorescence reading (RFU) was calculated as follows: RFU=Fmax−Fmin The data were fitted to a sigmoidal dose-response curve with a variable Hill slope (<2) using nonlinear regression with GraphPad Prism 5.0 to calculate the EC50 values. The Fitting Equation was: Y=Bottom+(Top−Bottom)/(1+10^((Log EC50−X)*HillSlope)), where X is the log of the concentration and Y is the response.
In general terms: A change in cytosolic calcium serves as a functional read-out for many receptors and channels.

T1 sequence (Q5NUL3 1-377 isoform Q5NUL3-1): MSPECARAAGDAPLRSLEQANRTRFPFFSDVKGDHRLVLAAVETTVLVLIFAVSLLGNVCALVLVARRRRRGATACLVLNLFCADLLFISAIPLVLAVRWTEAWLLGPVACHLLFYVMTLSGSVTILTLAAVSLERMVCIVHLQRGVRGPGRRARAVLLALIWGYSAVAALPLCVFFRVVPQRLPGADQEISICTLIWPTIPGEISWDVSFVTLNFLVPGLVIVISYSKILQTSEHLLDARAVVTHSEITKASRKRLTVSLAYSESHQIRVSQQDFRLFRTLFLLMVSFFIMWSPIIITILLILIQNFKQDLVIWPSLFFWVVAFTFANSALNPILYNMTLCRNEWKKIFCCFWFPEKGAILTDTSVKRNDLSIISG
T1 sequence (P32121 whole entry partner): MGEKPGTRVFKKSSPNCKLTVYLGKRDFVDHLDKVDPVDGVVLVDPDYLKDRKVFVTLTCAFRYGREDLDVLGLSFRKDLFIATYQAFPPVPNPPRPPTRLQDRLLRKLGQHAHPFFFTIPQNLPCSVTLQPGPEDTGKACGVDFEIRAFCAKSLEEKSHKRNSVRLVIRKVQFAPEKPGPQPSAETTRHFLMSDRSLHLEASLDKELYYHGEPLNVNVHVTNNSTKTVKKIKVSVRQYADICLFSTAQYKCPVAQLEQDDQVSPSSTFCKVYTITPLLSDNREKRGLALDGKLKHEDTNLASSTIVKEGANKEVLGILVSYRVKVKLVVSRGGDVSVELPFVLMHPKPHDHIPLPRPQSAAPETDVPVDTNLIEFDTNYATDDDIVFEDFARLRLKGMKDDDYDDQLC

Broadly, the EC50 is the concentration at which the effect is half-maximal. In the case of `OCCCc1cc(F)c(OCc2sc(Cl)cc2-c2ccc(Cl)cc2)c(F)c1` [Cpd 19, 3-(4-[[5-chloro-3-(4-chlorophenyl)thiophen-2-yl]methoxy]-3,5-difluorophenyl)propan-1-ol], the EC50 amounted to 108 nM in test [1] and 634 nM in test [2].
With `Cc1c(CCC(=O)O)cc(F)c(OCc2c(-c3ccc(Cl)cc3)nsc2C(F)(F)F)c1F` [Cpd 113, 3-(4-((3-(4-chlorophenyl)-5-(trifluoromethyl)isothiazol-4-yl)methoxy)-3,5-difluoro-2-methylphenyl)propanoic acid], the EC50 stood at 71 nM in test [1] and 99 nM in test [2].
On to `CCc1nsc(-c2ccc(C)cc2F)c1COc1c(F)cc(CCC(=O)O)cc1F` [Cpd 150, 3-(4-[[3-ethyl-5-(2-fluoro-4-methylphenyl)-1,2-thiazol-4-yl]methoxy]-3,5-difluorophenyl)propanoic acid], for which the 50% effective concentration (EC50) in test [1] came to 240 nM; in test [2] it was 167 nM.
`Cc1c(CCC(=O)O)ccc(OCc2c(Cl)nsc2-c2cccc(Cl)c2)c1C` [Cpd 156, 3-(4-[[3-chloro-5-(3-chlorophenyl)-1,2-thiazol-4-yl]methoxy]-2,3-dimethylphenyl)propanoic acid]: the EC50 in test [1] amounted to 368 nM; in test [2], 185 nM.
On to `Cc1c(CCC(=O)O)ccc(OCc2c(-c3ccc(Cl)c(F)c3)nsc2C(F)(F)F)c1C` [Cpd 82, 3-(4-((3-(4-chloro-3-fluorophenyl)-5-(trifluoromethyl)isothiazol-4-yl)methoxy)-2,3-dimethylphenyl)propanoic acid], for which the values for the EC50 in test [1] and in test [2] were 172 nM and 54 nM, respectively.
Regarding `Cc1cc(CCC(=O)O)ccc1OCc1c(-c2ccc(Cl)cc2)nsc1C(F)(F)F` [Cpd 235, 3-(4-[[3-(4-chlorophenyl)-5-(trifluoromethyl)-1,2-thiazol-4-yl]methoxy]-3-methylphenyl)propanoic acid], the concentration giving a half-maximal response (EC50) in test [1] came out at 302 nM.
Consider `Cc1ccc(-c2snc(Cl)c2COc2c(F)cc(CCC(=O)O)cc2F)c(F)c1` [Cpd 77, 3-(4-[[3-chloro-5-(2-fluoro-4-methylphenyl)-1,2-thiazol-4-yl]methoxy]-3,5-difluorophenyl)propanoic acid], for which the 50% effective concentration (EC50) in test [1] turned out to be 191 nM.
The same measure, in the same setting: next, `O=C(O)CCc1ccc(OCc2sc(Cl)cc2-c2ccc(Cl)cc2)c(F)c1F` [Cpd 28, 3-(4-[[5-chloro-3-(4-chlorophenyl)thiophen-2-yl]methoxy]-2,3-difluorophenyl)propanoic acid]: 186 nM; `CCc1ccc(-c2nsc(C(F)(F)F)c2COc2c(C)cc(CCC(=O)O)cc2C)cc1` [Cpd 239, 3-(4-((3-(4-ethylphenyl)-5-(trifluoromethyl)isothiazol-4-yl)methoxy)-3,5-dimethylphenyl)propanoic acid]: 203 nM.
The same measure, in the same setting: to `COc1ccc(-c2nsc(C(F)(F)F)c2COc2c(F)cc(CCCO)cc2F)cc1` [Cpd 234, 3-(3,5-difluoro-4-[[3-(4-methoxyphenyl)-5-(trifluoromethyl)-1,2-thiazol-4-yl]methoxy]phenyl)propan-1-ol] belongs 145 nM.
With `CCc1ccc(-c2nsc(C(F)(F)F)c2COc2ccc(CCC(=O)O)c(C(F)(F)F)c2C)cc1` [Cpd 242, 3-(4-[[3-(4-ethylphenyl)-5-(trifluoromethyl)-1,2-thiazol-4-yl]methoxy]-3-methyl-2-(trifluoro-methyl)phenyl)propanoic acid], in test [2], the EC50 was determined as 1290 nM.
On the same count and under the same terms, next, `Cc1c(CCCO)ccc(OCc2sc(Cl)cc2-c2ccc(Cl)cc2)c1C` [Cpd 15, 3-(4-[[5-chloro-3-(4-chlorophenyl)thiophen-2-yl]methoxy]-2,3-dimethylphenyl)propan-1-ol]: 266 nM; `Cc1c(CCC(=O)O)ccc(OCc2csnc2-c2ccc(Cl)s2)c1C` [Cpd 204, 3-(4-((3-(5-chlorothiophen-2-yl)isothiazol-4-yl)methoxy)-2,3-dimethylphenyl)propanoic acid]: 496 nM.
In the case of `OCCCc1ccc(OCc2sc(Cl)cc2-c2ccc(Cl)cc2)c(F)c1F` [Cpd 29, 3-(4-[[5-chloro-3-(4-chlorophenyl)thiophen-2-yl]methoxy]-2,3-difluorophenyl)propan-1-ol], the EC50 in test [1] stood at 243 nM.
